From patent publication US9920030B2 (priority 2006, dated 2018)
Like-named read-outs stand apart in the source and are kept apart here.

Columns and labels:
Assay type in all cases: in vivo
[1] = test system: Plasmopara vilicola (the causal agent of grape downy mildew); experiment: Test A: grape downy mildew, test suspension sprayed on grape seedlings after inoculation, visual disease rating
Text: General protocol for preparing test suspensions for Test A-C: The test compounds were first dissolved in acetone in an amount equal to 3% of the final volume and then suspended at the desired concentration (in ppm) in acetone and purified water (50/50 mix by volume) containing 250 ppm of the surfactant Trem® 014 (polyhydric alcohol esters). The resulting test suspensions were then used in Tests A-C. Spraying a 200 ppm test suspension to the point of run-off on the test plants was equivalent to a rate of 500 g/ha.
Grape seedlings were inoculated with a spore suspension of Plasmopara vilicola (the causal agent of grape downy mildew) and incubated in a saturated atmosphere at 20° C. for 24 h. After a short drying period, the test suspension was sprayed to the point of run-off on the grape seedlings, which were then moved to a growth chamber at 20° C. for 5 days, after which time the grape seedling were placed back into a saturated atmosphere at 20° C. for 24 h. Upon removal, visual disease ratings were made.
Results for Tests A-C are given in Table A. In the table, a rating of 100 indicates 100% disease control and a rating of 0 indicates no disease control (relative to the controls). A dash (-) indicates no test results.

[2] = test system: Phytophthora infestans (the causal agent of tomato late blight); experiment: whole plant or invertebrate
[3] = test system: Phytophthora infestans (the causal agent of tomato late blight); experiment: whole plant or invertebrate; remark: listed apart in the source
[4] = compounds without asterisk (application rate not given), 100 = 100% disease control, 0 = no control relative to the controls
[5] = Phytophthora infestans, 144 h, read-out: Percent Disease Control, Test B
[6] = Phytophthora infestans, 96 h, read-out: Percent Disease Control, Test C
[7] = Plasmopara, 144 h, * tested at 40 ppm, read-out: Percent Disease Control, Test A

SMILES | Percent Disease Control, Test A [1, 4] | Percent Disease Control, Test B [2, 4] | Percent Disease Control, Test C [3, 4] | further results
Cc1cc(C(F)(F)F)nn1CC(=O)N1CCC(c2nc(C3=NOC4(CCC(c5ccccc5)C4)C3)cs2)CC1 (single isomer, unassigned) [Compound 158] | 96% | 100% | 99% | –
Cc1cc(C(F)(F)F)nn1CC(=O)N1CCC(c2nc(C3=NOC4(COC(c5ccccc5)OC4)C3)cs2)CC1 (single isomer, unassigned) [Compound 175] | 68% | 100% | 33% | –
Cc1cc(C(F)(F)F)nn1CC(=O)N1CCC(c2nc(C3=NOC4(COC(c5ccccc5)OC4)C3)cs2)CC1 (single isomer, unassigned) [Compound 176] | 68% | 100% | 63% | –
Cc1cc(C(F)(F)F)nn1CC(=O)N1CCC(c2nc(C3=NOC4(CCC(C)(c5ccccc5)CC4)C3)cs2)CC1 (single isomer, unassigned) [Compound 186] | – | – | – | Percent Disease Control, Test A ([1]; * tested at 40 ppm): 95%; Percent Disease Control, Test B ([2]; * tested at 40 ppm): 100%; Percent Disease Control, Test C ([3]; * tested at 40 ppm): 86%
Cc1cc(C(F)(F)F)nn1CC(=O)N1CCC(c2nc(C3=NOC4(CCC(C)(c5ccccc5)CC4)C3)cs2)CC1 (single isomer, unassigned) [Compound 187] | – | – | – | Percent Disease Control, Test A ([1]; * tested at 40 ppm): 99%; Percent Disease Control, Test B ([2]; * tested at 40 ppm): 100%; Percent Disease Control, Test C ([3]; * tested at 40 ppm): 93%
Cc1cc(C(F)(F)F)nn1CC(=O)N1CCC(c2nc(C3=NOC4(CCCC(C#N)C4)C3)cs2)CC1 (single isomer, unassigned) [Compound 253] | – | – | – | Percent Disease Control, Test A ([1]; * tested at 40 ppm): 100%; Percent Disease Control, Test B ([2]; * tested at 40 ppm): 100%; Percent Disease Control, Test C ([3]; * tested at 40 ppm): 95%
Cc1cc(C(F)(F)F)nn1CC(=O)N1CCC(c2nc(C3=NOC4(CCCC(C#N)C4)C3)cs2)CC1 (single isomer, unassigned) [Compound 254] | – | – | – | Percent Disease Control, Test A ([1]; * tested at 40 ppm): 100%; Percent Disease Control, Test B ([2]; * tested at 40 ppm): 100%; Percent Disease Control, Test C ([3]; * tested at 40 ppm): 93%
Cc1cc(C(F)(F)F)nn1CC(=O)N1CCC(c2nc(C3=NOC4(CCC(C#N)CC4)C3)cs2)CC1 (single isomer, unassigned) [Compound 255] | – | – | – | Percent Disease Control, Test A ([1]; * tested at 40 ppm): 95%; Percent Disease Control, Test B ([2]; * tested at 40 ppm): 100%; Percent Disease Control, Test C ([3]; * tested at 40 ppm): 93%
Cc1cc(C(F)(F)F)nn1CC(=O)N1CCC(c2nc(C3=NOC4(CCC(C#N)CC4)C3)cs2)CC1 (single isomer, unassigned) [Compound 256] | – | – | – | Percent Disease Control, Test A ([1]; * tested at 40 ppm): 100%; Percent Disease Control, Test B ([2]; * tested at 40 ppm): 100%; Percent Disease Control, Test C ([3]; * tested at 40 ppm): 99%
Cc1cc(C(F)(F)F)nn1CC(=O)N1CCC(c2nc(C3=NO[C@@H](c4ccccc4)C3)cs2)CC1 [Compound 3, 1-[4-[4-[(5R)-4,5-dihydro-5-phenyl-3-isoxazolyl]-2-thiazolyl]-1-piperidinyl]-2-[5-methyl-3-(trifluoromethyl)-1H-pyrazol-1-yl]ethanone] | – | – | – | pest or weed control at 10 µg/mL ([1]; Plasmopara, 144 h, ** tested at l0 ppm, read-out: Percent Disease Control, Test A): 100%; pest or weed control at 10 µg/mL [2, 5]: 100%; pest or weed control at 10 µg/mL [3, 6]: 99%
Cc1cc(C(F)(F)F)nn1CC(=O)N1CCC(c2nc(C3CC(c4ccccc4)=NO3)cs2)CC1 (stereo not drawn) [Compound 6, 4-[4-(4,5-dihydro-3-phenyl-5-isoxazolyl)-2-thiazolyl]-1-[(5-methyl-3-(trifluoromethyl)-1H-pyrazol-1-yl)acetyl]piperidine] | – | – | – | pest or weed control at 40 ppm [1, 7]: 95%; pest or weed control at 40 ppm [2, 5]: 100%; pest or weed control at 40 ppm [3, 6]: 99%
CC(=O)N1C(c2ccccc2)COC1c1csc(C2CCN(C(=O)Cn3nc(C(F)(F)F)cc3C)CC2)n1 (stereo not drawn) [Compound 14] | 25% | 99% | 99% | –
Cc1cc(C(F)(F)F)nn1CC(=O)N1CCC(c2nc(C3=NOC(c4ccccc4)C3C)cs2)CC1 (stereo not drawn) [Compound 25] | – | – | – | Percent Disease Control, Test A ([1]; * tested at 40 ppm): 100%; Percent Disease Control, Test B ([2]; * tested at 40 ppm): 100%; Percent Disease Control, Test C ([3]; * tested at 40 ppm): 99%
Cc1cc(C(F)(F)F)nn1CC(=O)N1CCC(c2nc(-c3ccc(-c4ccccc4)cc3)cs2)CC1 [Compound 26] | 76% | 83% | 33% | –
Cc1cc(C(F)(F)F)nn1CC(=O)N1CCC(c2nc(C3=NOC(C)(c4ccccc4)CC3)cs2)CC1 (stereo not drawn) [Compound 29] | 99% | 100% | 99% | –
Cc1cc(C(F)(F)F)nn1CC(=O)N1CCC(c2nc(-c3cc(-c4ccccc4)no3)cs2)CC1 [Compound 30] | – | – | – | Percent Disease Control, Test A ([1]; ** tested at l0 ppm): 31%; Percent Disease Control, Test B ([2]; ** tested at l0 ppm): 57%; Percent Disease Control, Test C ([3]; ** tested at l0 ppm): 50%
Cc1cc(C(F)(F)F)nn1CC(=O)N1CCC(c2nc(C3=NC(c4ccccc4)CO3)cs2)CC1 (stereo not drawn) [Compound 31] | – | – | – | Percent Disease Control, Test A ([1]; ** tested at l0 ppm): 84%; Percent Disease Control, Test B ([2]; ** tested at l0 ppm): 83%; Percent Disease Control, Test C ([3]; ** tested at l0 ppm): 60%

SMILES | Percent Disease Control, Test A [1, 4] | Percent Disease Control, Test B [2, 4] | Percent Disease Control, Test C [3, 4] | further results
Cc1cc(C(F)(F)F)nn1CC(=O)N1CCC(c2nc(C3=NCCN3Cc3ccccc3)cs2)CC1 [Compound 32] | 0% | 26% | 0% | –
Cc1cc(C(F)(F)F)nn1CC(=O)N1CCC(n2cc(-c3cccc(-c4ccccc4)c3)cn2)CC1 [Compound 33] | 15% | 9% | 0% | –
Cc1cc(C(F)(F)F)nn1CC(=O)N1CCC(n2cc(-c3cccc(-c4ccccc4)n3)cn2)CC1 [Compound 34] | 0% | 40% | 0% | –
Cc1cc(C(F)(F)F)nn1CC(=O)N1CCC(c2nc(C3=NOC4(CCCc5ccccc54)C3)cs2)CC1 (stereo not drawn) [Compound 37, 1-[4-[4-(3′,4′-dihydrospiro[isoxazole-5(4H), 1′,(2′H)-naphthalen]-3-yl)-2-thiazolyl]-1-piperidinyl]-2-[5-methyl-3-(trifluoromethyl)-1H-pyrazol-1-yl]ethanone] | – | – | – | Percent Disease Control, Test A ([1]; * tested at 40 ppm): 100%; Percent Disease Control, Test B ([2]; * tested at 40 ppm): 100%; Percent Disease Control, Test C ([3]; * tested at 40 ppm): 99%
Cc1cc(C(F)(F)F)nn1CC(=O)N1CCC(c2nc(C3=NOC(c4cc(Cl)cc(Cl)c4)(C(F)(F)F)C3)cs2)CC1 (stereo not drawn) [Compound 39] | 8% | 67% | 0% | –
Cc1cc(C(F)(F)F)nn1CC(=O)N1CCC(c2nc(-c3nnc(-c4ccccc4)o3)cs2)CC1 [Compound 40] | 47% | 100% | 99% | –
Cc1cc(C(F)(F)F)nn1CC(=O)N1CCC(c2nc(-c3ncc(-c4ccccc4)o3)cs2)CC1 [Compound 42] | 62% | 100% | 96% | –
Cc1cc(C(F)(F)F)nn1CC(=O)N1CCC(c2nc(-c3nc4ccccc4s3)cs2)CC1 [Compound 43] | 0% | 43% | 0% | –
Cc1cc(C(F)(F)F)nn1CC(=O)N1CCC(c2nc(C3=NOC4(CCc5ccccc54)C3)cs2)CC1 (stereo not drawn) [Compound 44, 1-[4-[4-(2,3-dihydrospiro[1H-indene-1,5′(4′H)-isoxazol]-3′-yl)-2-thiazolyl]-1-piperidinyl]-2-[5-methyl-3-(trifluoromethyl)-1H-pyrazol-1-yl]ethanone] | – | – | – | pest or weed control at 40 ppm [1, 7]: 100%; pest or weed control at 40 ppm [2, 5]: 100%; pest or weed control at 40 ppm [3, 6]: 99%
Cc1cc(C(F)(F)F)nn1CC(=O)N1CCC(c2nc(C3=NOC4C(=O)N(C)C(=O)C34)cs2)CC1 (stereo not drawn) [Compound 45] | 30% | 26% | 0% | –
Cc1cc(C(F)(F)F)nn1CC(=O)N1CCC(c2nc(C3=NCC(c4ccccc4)O3)cs2)CC1 (stereo not drawn) [Compound 47] | 0% | 85% | 47% | –
Cc1cc(C(F)(F)F)nn1CC(=O)N1CCC(c2nc(C3=NCCC(c4ccccc4)O3)cs2)CC1 (stereo not drawn) [Compound 48] | 0% | 85% | 0% | –
Cc1cc(C(F)(F)F)nn1CC(=O)N1CCC(c2nc(C3=NC(c4ccccc4)CO3)cs2)CC1 (stereo not drawn) [Compound 49] | 0% | 100% | 96% | –
Cc1cc(C(F)(F)F)nn1CC(=O)N1CCC(c2nc(C3=NCC(c4ccccc4)O3)cs2)CC1 (stereo not drawn) [Compound 50] | 0% | 100% | 99% | –
Cc1cc(C(F)(F)F)nn1CC(=O)N1CCC(c2nc(C3=NOC4c5ccccc5CC34)cs2)CC1 (stereo not drawn) [Compound 51] | 99% | 100% | 99% | –
Cc1cc(C(F)(F)F)nn1CC(=O)N1CCC(c2nc(-c3nc4ccccc4o3)cs2)CC1 [Compound 52] | 85% | 100% | 67% | –
